Laboratory results from paper PMC4303209, “A novel phosphatidylinositol 3-kinase (PI3K) inhibitor directs a potent FOXO-dependent, p53-independent cell cycle arrest phenotype characterized by the differential induction of a subset of FOXO-regulated genes” (Breast Cancer Research : BCR, 2014).

Tested on: MCF-7 breast cancer cells
Assay: Microarray gene expression analysis (Agilent whole human genome 4 x 44K; compound vs DMSO, LIMMA log2 fold change)
Assay type: cell-based
Settings: cell cycle genes

## Cn1ncc2c(N3CCOCC3)nc(-c3cccc(O)c3)nc21 [ETP-45658]
Gene 4291
  MLF1 log2FC: 0.627
Gene 4292
  MLH1 log2FC: 0.538
Gene 4296
  MAP3K11 log2FC: -0.949
Gene 4331
  MNAT1 log2FC: 0.729
Gene 4335
  MNT log2FC: 1.624
Gene 4342
  MOS log2FC: -0.164
Gene 4361
  MRE11A log2FC: 0.332
Gene 4436
  MSH2 log2FC: 0.939
Gene 4437
  MSH3 log2FC: 0.739
Gene 4438
  MSH4 log2FC: -0.048
Gene 4487
  MSX1 log2FC: -0.324
Gene 4488
  MSX2 log2FC: 0.054
Gene 4582
  MUC1 log2FC: -0.901
Gene 4591
  TRIM37 log2FC: 0.868
Gene 4600
  MX2 log2FC: -0.054
Gene 4602
  MYB log2FC: 0.452
Gene 4605
  MYBL2 log2FC: -0.545
Gene 4609
  MYC log2FC: 0.554
Gene 4616
  GADD45B log2FC: 0.642
Gene 4627
  MYH9 log2FC: -0.364
Gene 4628
  MYH10 log2FC: -0.039
Gene 4659
  PPP1R12A log2FC: 0.489
Gene 4660
  PPP1R12B log2FC: 0.389
Gene 4682
  NUBP1 log2FC: -0.227
Gene 4683
  NBN log2FC: 0.839
Gene 4739
  NEDD9 log2FC: -0.017
Gene 4750
  NEK1 log2FC: 0.621
Gene 4751
  NEK2 log2FC: 0.969
Gene 4760
  NEUROD1 log2FC: -0.043
Gene 4804
  NGFR log2FC: -0.063
Gene 4853
  NOTCH2 log2FC: 0.166
Gene 4863
  NPAT log2FC: 0.585
Gene 4869
  NPM1 log2FC: 0.586
Gene 4927
  NUP88 log2FC: 0.539
Gene 4957
  ODF2 log2FC: -0.215
Gene 5008
  OSM log2FC: 0.056
Gene 5017
  OVOL1 log2FC: -0.043
Gene 5048
  PAFAH1B1 log2FC: 0.720
Gene 5058
  PAK1 log2FC: 0.117
Gene 5063
  PAK3 log2FC: 0.230
Gene 5108
  PCM1 log2FC: 0.687
Gene 5116
  PCNT log2FC: 0.317
Gene 5155
  PDGFB log2FC: -0.598
Gene 5159
  PDGFRB log2FC: 0.022
Gene 5229
  PGGT1B log2FC: -0.232
Gene 5243
  ABCB1 log2FC: -0.025
Gene 5289
  PIK3C3 log2FC: 1.044
Gene 5292
  PIM1 log2FC: 1.131
Gene 5300
  PIN1 log2FC: -0.195
Gene 5310
  PKD1 log2FC: 0.265
Gene 5311
  PKD2 log2FC: 0.346
Gene 5314
  PKHD1 log2FC: -0.057
Gene 5325
  PLAGL1 log2FC: 0.310
Gene 5371
  PML log2FC: -0.804
Gene 5378
  PMS1 log2FC: 0.682
Gene 5395
  PMS2 log2FC: 0.442
Gene 5424
  POLD1 log2FC: 0.148
Gene 5426
  POLE log2FC: -0.223
Gene 5471
  PPAT log2FC: 0.243
Gene 5494
  PPM1A log2FC: 0.474
Gene 5500
  PPP1CB log2FC: 1.012
Gene 5501
  PPP1CC log2FC: 0.572
Gene 5518
  PPP2R1A log2FC: -0.055
Gene 5520
  PPP2R2A log2FC: 0.059
Gene 5524
  PPP2R4 log2FC: -0.446
Gene 5527
  PPP2R5C log2FC: 0.888
Gene 5530
  PPP3CA log2FC: 0.422
Gene 5536
  PPP5C log2FC: -0.138
Gene 5537
  PPP6C log2FC: -0.352
Gene 5546
  PRCC log2FC: -0.798
Gene 5557
  PRIM1 log2FC: 0.636
Gene 5562
  PRKAA1 log2FC: 0.429
Gene 5563
  PRKAA2 log2FC: 0.082
Gene 5564
  PRKAB1 log2FC: 0.427
Gene 5565
  PRKAB2 log2FC: 1.177
Gene 5566
  PRKACA log2FC: -0.596
Gene 5569
  PKIA log2FC: -0.378
Gene 5571
  PRKAG1 log2FC: 0.238
Gene 5573
  PRKAR1A log2FC: 0.532
Gene 5577
  PRKAR2B log2FC: 0.565
Gene 5578
  PRKCA log2FC: -0.217
Gene 5580
  PRKCD log2FC: -0.079
Gene 5581
  PRKCE log2FC: -0.042
Gene 5586
  PKN2 log2FC: 0.510
Gene 5594
  MAPK1 log2FC: -0.045
Gene 5595
  MAPK3 log2FC: -0.190
Gene 5603
  MAPK13 log2FC: -0.354
Gene 5604
  MAP2K1 log2FC: -0.107
Gene 5608
  MAP2K6 log2FC: 0.116
Gene 5629
  PROX1 log2FC: 0.206
Gene 5655
  KLK10 log2FC: -0.446
Gene 5682
  PSMA1 log2FC: 0.045
Gene 5685
  PSMA4 log2FC: 0.609
Gene 5687
  PSMA6 log2FC: 0.200
Gene 5689
  PSMB1 log2FC: 0.085
Gene 5690
  PSMB2 log2FC: -0.547
Gene 5691
  PSMB3 log2FC: -0.030
Gene 5693
  PSMB5 log2FC: -0.298
Gene 5694
  PSMB6 log2FC: -0.120
Gene 5696
  PSMB8 log2FC: -0.045
Gene 5700
  PSMC1 log2FC: 0.172
Gene 5701
  PSMC2 log2FC: 0.576
Gene 5705
  PSMC5 log2FC: -0.327
Gene 5706
  PSMC6 log2FC: 0.776
Gene 5708
  PSMD2 log2FC: 0.090
Gene 5709
  PSMD3 log2FC: -0.109
Gene 5710
  PSMD4 log2FC: -0.086
Gene 5711
  PSMD5 log2FC: 0.388
Gene 5713
  PSMD7 log2FC: 0.182
Gene 5715
  PSMD9 log2FC: -0.171
Gene 5718
  PSMD12 log2FC: -0.582
Gene 5719
  PSMD13 log2FC: -0.031
Gene 5721
  PSME2 log2FC: 0.039
Gene 5728
  PTEN log2FC: 1.014
Gene 5743
  PTGS2 log2FC: -0.151
Gene 5774
  PTPN3 log2FC: -0.174
Gene 5777
  PTPN6 log2FC: 0.120
Gene 5788
  PTPRC log2FC: -0.053
Gene 5796
  PTPRK log2FC: 0.583
Gene 5810
  RAD1 log2FC: -0.104
Gene 5883
  RAD9A log2FC: 0.686
Gene 5884
  RAD17 log2FC: 1.203
Gene 5885
  RAD21 log2FC: 1.043
Gene 5888
  RAD51 log2FC: -0.360
Gene 5893
  RAD52 log2FC: 0.105
Gene 5901
  RAN log2FC: 0.119
Gene 5902
  RANBP1 log2FC: -0.137
Gene 5903
  RANBP2 log2FC: 0.605
Gene 5914
  RARA log2FC: -0.580
Gene 5921
  RASA1 log2FC: 0.488
Gene 5925
  RB1 log2FC: 0.746
Gene 5934
  RBL2 log2FC: 0.480
Gene 5981
  RFC1 log2FC: 1.105
Gene 5982
  RFC2 log2FC: 0.117
Gene 5985
  RFC5 log2FC: 0.243
Gene 5997
  RGS2 log2FC: -2.314
Gene 6009
  RHEB log2FC: 0.421
Gene 6045
  RNF2 log2FC: -0.048
Gene 6047
  RNF4 log2FC: -0.426
Gene 6119
  RPA3 log2FC: 0.162
Gene 6196
  RPS6KA2 log2FC: 0.035
Gene 6197
  RPS6KA3 log2FC: 0.412
Gene 6210
  RPS15A log2FC: 0.277
Gene 6232
  RPS27 log2FC: 0.416
Gene 6233
  RPS27A log2FC: 0.401
Gene 6240
  RRM1 log2FC: 0.612
Gene 6241
  RRM2 log2FC: -0.808
Gene 6419
  SETMAR log2FC: -0.171
Gene 6478
  SIAH2 log2FC: -0.579
Gene 6502
  SKP2 log2FC: -1.072
Gene 6597
  SMARCA4 log2FC: -0.352
Gene 6657
  SOX2 log2FC: 0.298
Gene 6662
  SOX9 log2FC: -2.381
Gene 6683
  SPAST log2FC: 0.519
Gene 6711
  SPTBN1 log2FC: 0.111
Gene 6733
  SRPK2 log2FC: 0.850
Gene 6737
  TRIM21 log2FC: -0.066
